Assay results taken from paper PMC6010107, “Identification of new allosteric sites and modulators of AChE through computational and experimental tools” (Journal of Enzyme Inhibition and Medicinal Chemistry, 2018).
Read-outs that look alike come from different tables or passages of the source.

Assays:
AChE [1] = target: T1, AChE (Homo sapiens, UniProt P22303); assay: AChE inhibition in presence of the competitive inhibitor JTE-907 (cooperative activities); format: biochemical; parameters: key to ΔISC035 (combination minus SC035 alone): difference in % AChE inhibition (combination minus SC035 alone); settings: for Effect of combining with JTE-907 on AChE inhibition: sum of activities with JTE-907
T1 construct: purchased Sigma Chemical Co., Madrid, Spain
Experimental: (§1) The method was adapted from Ellman et al.[47] The assay solution consisted of 0.1 M phosphate buffer pH 8, […] 5,5′-dithiobis(2-nitrobenzoic acid) (DTNB, Ellman’s reagent), 0.05 unit/ml AChE (Sigma Chemical Co., Madrid, Spain, Cholinesterase, acetyl human recombinant), and […] acetylthiocholine iodide as the substrate of the enzymatic reaction. The compounds tested were added to the assay solution and the absorbance changes at 412 nm were recorded for 5 min with a UV/Vis Microplate and cuvette Spectrophotometer, Thermo Electron Type, Multiskan Spectrum. The reaction rates were compared, and the per cent inhibition due to the presence of test compounds was calculated. […] All the experiments were performed in triplicate.
Clearly, both compounds bind to AChE at an allosteric site. […] If our hypothesis is right, the binding of VP2.33 and SC035 to the allosteric site 3 in presence of JTE-907 should show a cooperative behaviour in terms of inhibition of the AChE.

AChE [2] = target: T1, AChE; settings: cited from earlier work
[3] = target: T2, AChE (Cholinesterase, acetyl human recombinant) (Homo sapiens, UniProt P22303); assay: biochemical; format: biochemical
T2 construct: purchased Sigma Chemical Co., Madrid, Spain
Experimental: as §1

AChE [4] = target: T1, AChE; assay: Kinetic study of AChE inhibition (Lineweaver-Burk); format: biochemical; settings: Lineweaver-Burk plots, four substrate and three inhibitor concentrations
Experimental: To investigate the mechanism of action of the compounds on AChE, a kinetic analysis was performed. The experiments were carried out using combinations of four substrate concentrations, and three inhibitor concentrations. Double-reciprocal Lineweaver–Burk plotting of the data obtained, in which each point is mean of three different experiments, were analysed.
Mixed inhibitors cause intersects above or below the x-axis.

[5] = Table S1 first grid, JTE907 2.5 μM + SC035 25 μM
[6] = Table S1 first grid, JTE907 5 μM + SC035 50 μM
[7] = Table S1 first grid, JTE907 20 μM + SC035 25 μM
[8] = Table S1 first grid, JTE907 20 μM + SC035 50 μM
[9] = Table S1 second grid, SC035 25 μM + JTE907 5 μM
[10] = Table S1 second grid, SC035 50 μM + JTE907 2.5 μM
[11] = Table S1 second grid, SC035 50 μM + JTE907 5 μM
[12] = Table S1 second grid, SC035 70 μM + JTE907 2.5 μM
[13] = Table S1 second grid, SC035 70 μM + JTE907 5 μM
[14] = compound alone, read-out: Individual inhibition of AChE
[15] = Table 4, compounds selected to bind site 3, read-out: IC50

T2 sequence (P22303 32-614): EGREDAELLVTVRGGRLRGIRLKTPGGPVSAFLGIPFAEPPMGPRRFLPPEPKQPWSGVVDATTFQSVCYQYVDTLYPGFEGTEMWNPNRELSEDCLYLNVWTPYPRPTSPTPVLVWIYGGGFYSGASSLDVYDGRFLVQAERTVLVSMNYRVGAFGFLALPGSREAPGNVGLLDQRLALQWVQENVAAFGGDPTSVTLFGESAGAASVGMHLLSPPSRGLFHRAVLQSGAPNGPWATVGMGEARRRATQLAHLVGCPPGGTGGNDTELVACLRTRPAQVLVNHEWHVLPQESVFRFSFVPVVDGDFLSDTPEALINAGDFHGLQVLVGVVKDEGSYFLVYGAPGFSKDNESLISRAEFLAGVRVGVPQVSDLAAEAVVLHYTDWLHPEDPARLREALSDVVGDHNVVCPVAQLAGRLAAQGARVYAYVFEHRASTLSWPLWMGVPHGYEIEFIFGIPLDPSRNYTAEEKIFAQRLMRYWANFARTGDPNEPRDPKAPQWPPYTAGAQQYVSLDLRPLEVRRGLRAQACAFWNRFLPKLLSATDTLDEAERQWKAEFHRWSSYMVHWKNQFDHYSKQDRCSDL
T1 sequence (P22303 32-614): as above

SMILES: CCCCCOc1c(OC)ccc2cc(C(=O)NCc3ccc4c(c3)OCO4)c(=O)[nH]c12 [JTE907, reference compound]
- ΔIJTE907 (combination minus JTE907 alone) (AChE [1]; JTE907 5 μM + VP2.33 25 μM): ΔIJTE907 = 19.86
- ΔIJTE907 (combination minus JTE907 alone) (AChE [1]; JTE907 5 μM + VP2.33 50 μM): ΔIJTE907 = 44.53
- ΔIJTE907 (combination minus JTE907 alone) (AChE [1]; JTE907 10 μM + VP2.33 25 μM): ΔIJTE907 = 11.79
- ΔIJTE907 (combination minus JTE907 alone) (AChE [1]; JTE907 20 μM + VP2.33 25 μM): ΔIJTE907 = 15.66
- ΔIJTE907 (combination minus JTE907 alone) (AChE [1]; JTE907 20 μM + VP2.33 50 μM): ΔIJTE907 = 24.96
- ΔIJTE907 (combination minus JTE907 alone) (AChE [1]; [5]): 21,5
- ΔIJTE907 (combination minus JTE907 alone) (AChE [1]; Table S1 first grid, JTE907 2.5 μM + SC035 50 μM): 33
- ΔIJTE907 (combination minus JTE907 alone) (AChE [1]; [6]): 19,52
- ΔIJTE907 (combination minus JTE907 alone) (AChE [1]; [7]): -3,46
- ΔIJTE907 (combination minus JTE907 alone) (AChE [1]; [8]): -3,34
- ΔIJTE907 (combination minus JTE907 alone) (AChE [1]; Table S1 second grid, SC035 25 μM + JTE907 2.5 μM): 18,41
- ΔIJTE907 (combination minus JTE907 alone) (AChE [1]; [9]): 13,78
- ΔIJTE907 (combination minus JTE907 alone) (AChE [1]; [10]): 33,91
- ΔIJTE907 (combination minus JTE907 alone) (AChE [1]; [11]): 17,2
- ΔIJTE907 (combination minus JTE907 alone) (AChE [1]; [12]): 48,02
- ΔIJTE907 (combination minus JTE907 alone) (AChE [1]; [13]): 20,33
- Individual inhibition of AChE (AChE [1]; compound alone, 2.5 μM): 14,09±2,85%
- Individual inhibition of AChE (AChE [1]; compound alone, 5 μM): 34,22±1,13% and JTE907 5μM (30.34 ± 2.85%)
- Individual inhibition of AChE (AChE [1]; compound alone, 10 μM): JTE907 10 μM (56.78 ± 1.35%)
- Individual inhibition of AChE (AChE [1]; compound alone, 20 μM): 65,78±2,37% and JTE907 20 μM (65.10 ± 2.37%)
- Mechanism of AChE inhibition (AChE [2]): pure competitive inhibitor

SMILES: O=C(/C=C/c1ccc(O)c(O)c1)O[C@H](Cc1ccc(O)c(O)c1)C(=O)O [Rosmarinic acid, reference compound]
- IC50 ([3]; IC50 (μM), Table 3, compounds selected to bind site 2): > 10 µM
- inhibition at 10 µM ([3]; read-out: % of inhibition at 10 μM): 26%

SMILES: O=C(CN1CCCC1)NN1c2ccccc2Sc2ccc(Cl)cc21 [SC035]
- ΔISC035 (combination minus SC035 alone) (AChE [1]; [5]): -6,74
- ΔISC035 (combination minus SC035 alone) (AChE [1]; Table S1 first grid, JTE907 5 μM + SC035 25 μM): 2,26
- ΔISC035 (combination minus SC035 alone) (AChE [1]; [6]): -4,98
- ΔISC035 (combination minus SC035 alone) (AChE [1]; [7]): 19,99
- ΔISC035 (combination minus SC035 alone) (AChE [1]; [8]): 3,72
- ΔISC035 (combination minus SC035 alone) (AChE [1]; [9]): 5,67
- ΔISC035 (combination minus SC035 alone) (AChE [1]; [10]): -10,72
- ΔISC035 (combination minus SC035 alone) (AChE [1]; [11]): -7,3
- ΔISC035 (combination minus SC035 alone) (AChE [1]; [12]): -13,21
- ΔISC035 (combination minus SC035 alone) (AChE [1]; [13]): -20,77
- inhibition at 25 µM (AChE [1]; [14]): 42.3%
- inhibition at 50 µM (AChE [1]; [14]): 58.7%
- inhibition at 70 µM (AChE [1]; compound alone, 70 μM, read-out: Individual inhibition of AChE): 75.3%
- Effect of combining with JTE-907 on AChE inhibition (AChE [1]): no addition of activities
- Mechanism of inhibition versus substrate ACh (AChE [4]): non-competitive inhibition
- IC50 [3, 15]: 42.1 ± 4.3 µM

SMILES: NC1=NC(=O)C2N=C(c3ccccc3)C(c3ccccc3)=NC2=N1 (stereo not drawn) [SC251]
- Mechanism of inhibition versus substrate ACh (AChE [4]): non-competitive-mixed
- IC50 ([3]; Table 3, compounds selected to bind site 2, read-out: IC50): 2.76 ± 0.25 µM

SMILES: OCCNc1nc(-c2cccc3ccccc23)[n+](-c2ccccc2)s1 [VP2.33]
- ΔIVP2.33 (combination minus VP2.33 alone) (AChE [1]; JTE907 5 μM + VP2.33 50 μM): ΔIVP2.33 = 17.16
- ΔIVP2.33 (combination minus VP2.33 alone) (AChE [1]; JTE907 10 μM + VP2.33 25 μM): ΔIVP2.33 = 41.29
- ΔIVP2.33 (combination minus VP2.33 alone) (AChE [1]; JTE907 10 μM + VP2.33 50 μM): ΔIVP2.33 = 27.71
- ΔIVP2.33 (combination minus VP2.33 alone) (AChE [1]; JTE907 20 μM + VP2.33 25 μM): ΔIVP2.33 = 53.48
- ΔIVP2.33 (combination minus VP2.33 alone) (AChE [1]; JTE907 20 μM + VP2.33 50 μM): ΔIVP2.33 = 32.35
- inhibition at 25 µM (AChE [1]; [14]): 27.3%
- inhibition at 50 µM (AChE [1]; [14]): 57.7%
- Effect of combining with JTE-907 on AChE inhibition (AChE [1]): an effect of cooperative activities
- Mechanism of inhibition versus substrate ACh (AChE [4]): non-competitive inhibition
- IC50 [3, 15]: 49.6 ± 1.5 µM
